The numbers were not newly measured in patent US20090239822A1, “Process for the preparation of esters of diacerein with hyaluronic acid and pharmaceutical compositions containing such esters” (priority 2006, published 2009), which cites them from elsewhere.

The structures appear in SMILES notation.

For the data set the following is noted: rhein from the pro-drug diacerein.

Regarding `O=C(O)c1cc(O)c2c(c1)C(=O)c1cccc(O)c1C2=O` [rhein], the concentration in the synovial liquid is 1 to 10 µM.
